Measurements from paper PMC6330093 (Bioconjugate chemistry, 2017).
Read-outs that look alike come from different tables or passages of the source.

What was measured:
[1] = variable temperature CD, 20 mM sodium phosphate buffer, pH 7
proteinase K = proteinase K (Parengyodontium album, UniProt P06873); experiment: HPLC-based proteolysis assay with proteinase K; format: in vitro ADME
Sequence of proteinase K (P06873 106-384, species assumed): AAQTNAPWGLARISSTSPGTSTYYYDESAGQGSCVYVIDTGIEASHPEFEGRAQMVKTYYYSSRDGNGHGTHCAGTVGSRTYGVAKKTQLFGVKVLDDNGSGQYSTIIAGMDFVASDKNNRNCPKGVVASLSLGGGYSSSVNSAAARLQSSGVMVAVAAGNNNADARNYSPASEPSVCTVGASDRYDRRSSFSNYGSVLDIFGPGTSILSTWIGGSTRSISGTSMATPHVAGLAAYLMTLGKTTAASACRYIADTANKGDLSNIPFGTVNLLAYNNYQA

Q: With `CC[C@H](C)[C@H](NC(=O)[C@H](Cc1c[nH]cn1)NC(=O)[C@H](CC(N)=O)NC(=O)[C@H](Cc1ccccc1)NC(=O)[C@H](Cc1ccc(O)cc1)NC(=O)[C@H](Cc1ccc(O)cc1)NC(=O)[C@@H](NC(=O)[C@H](CCCNC(=N)N)NC(=O)CNC(=O)[C@H](CO)NC(=O)[C@H](CO)NC(=O)[C@H](CCCNC(=N)N)NC(=O)[C@H](CC(N)=O)NC(=O)[C@H](CCSC)NC(=O)[C@H](CCCNC(=N)N)NC(=O)[C@H](CCCCN)NC(=O)[C@H](CCC(=O)O)NC(=O)[C@H](Cc1c[nH]c2ccccc12)NC(=O)CNC(=O)[C@@H]1CCCN1C(=O)[C@@H]1CCCN1C(=O)[C@H](CC(C)C)NC(=O)[C@@H](N)CCCCN)C(C)C)C(=O)N[C@H](C(=O)N[C@@H](CC(N)=O)C(=O)N[C@@H](C)C(=O)N[C@@H](CO)C(=O)N[C@@H](CCC(N)=O)C(=O)N[C@@H](Cc1ccccc1)C(=O)N[C@@H](CCC(=O)O)C(=O)N[C@@H](CCCNC(=N)N)C(=O)N1CCC[C@H]1C(=O)N[C@@H](CO)C(=O)NCC(=O)O)[C@@H](C)O` [16N] as the compound, how does the “Tm (melting temperature)” value ([1]; 100 μM protein) read?
A: Its value is 50.6 ±0.2 °C.

Q: With `CC[C@H](C)[C@H](NC(=O)[C@H](Cc1c[nH]cn1)NC(=O)[C@H](CC(N)=O)NC(=O)[C@H](Cc1ccccc1)NC(=O)[C@H](Cc1ccc(O)cc1)NC(=O)[C@H](Cc1ccc(O)cc1)NC(=O)[C@@H](NC(=O)[C@H](CCCNC(=N)N)NC(=O)CNC(=O)[C@H](CO)NC(=O)[C@H](CO)NC(=O)[C@H](CCCNC(=N)N)NC(=O)[C@H](CCC(N)=O)NC(=O)[C@H](CCSC)NC(=O)[C@H](CCCNC(=N)N)NC(=O)[C@H](CCCCN)NC(=O)[C@H](CCC(=O)O)NC(=O)[C@H](Cc1c[nH]c2ccccc12)NC(=O)CNC(=O)[C@@H]1CCCN1C(=O)[C@@H]1CCCN1C(=O)[C@H](CC(C)C)NC(=O)[C@@H](N)CCCCN)C(C)C)C(=O)N[C@H](C(=O)N[C@@H](CC(N)=O)C(=O)N[C@@H](C)C(=O)N[C@@H](CO)C(=O)N[C@@H](CCC(N)=O)C(=O)N[C@@H](Cc1ccccc1)C(=O)N[C@@H](CCC(=O)O)C(=O)N[C@@H](CCCNC(=N)N)C(=O)N1CCC[C@H]1C(=O)N[C@@H](CO)C(=O)NCC(=O)O)[C@@H](C)O` [16Q] as the compound, how does the “k, apparent proteolysis rate constant” value (proteinase K) read?
A: Its value is 8.9 ±0.2 s^−1 × 10^3.

Q: And the “Tm (melting temperature)” value ([1]; 50 μM protein)?
A: Its value is 56.6 ±0.1 °C.

Q: With `CC[C@H](C)[C@H](NC(=O)[C@H](Cc1c[nH]cn1)NC(=O)[C@H](CC(N)=O)NC(=O)[C@H](Cc1ccccc1)NC(=O)[C@H](Cc1ccc(O)cc1)NC(=O)[C@H](Cc1ccc(O)cc1)NC(=O)[C@@H](NC(=O)[C@H](CCCNC(=N)N)NC(=O)CNC(=O)[C@H](CO)NC(=O)[C@H](CC(N)=O)NC(=O)[C@H](CCCNC(=N)N)NC(=O)[C@H](CO)NC(=O)[C@H](CCSC)NC(=O)[C@H](CCCNC(=N)N)NC(=O)[C@H](CCCCN)NC(=O)[C@H](CCC(=O)O)NC(=O)[C@H](Cc1c[nH]c2ccccc12)NC(=O)CNC(=O)[C@@H]1CCCN1C(=O)[C@@H]1CCCN1C(=O)[C@H](CC(C)C)NC(=O)[C@@H](N)CCCCN)C(C)C)C(=O)N[C@H](C(=O)N[C@@H](CC(N)=O)C(=O)N[C@@H](C)C(=O)N[C@@H](CO)C(=O)N[C@@H](CCC(N)=O)C(=O)N[C@@H](Cc1ccccc1)C(=O)N[C@@H](CCC(=O)O)C(=O)N[C@@H](CCCNC(=N)N)C(=O)N1CCC[C@H]1C(=O)N[C@@H](CO)C(=O)NCC(=O)O)[C@@H](C)O` [18N] as the compound, how does the “Tm (melting temperature)” value ([1]; 100 μM protein) read?
A: Its value is 57.5 ±0.1 °C.

Q: For `CC[C@H](C)[C@H](NC(=O)[C@H](Cc1c[nH]cn1)NC(=O)[C@H](CC(N)=O)NC(=O)[C@H](Cc1ccccc1)NC(=O)[C@H](Cc1ccc(O)cc1)NC(=O)[C@H](CC(N)=O)NC(=O)[C@@H](NC(=O)[C@H](CCCNC(=N)N)NC(=O)CNC(=O)[C@H](CO)NC(=O)[C@H](CO)NC(=O)[C@H](CCCNC(=N)N)NC(=O)[C@H](CO)NC(=O)[C@H](CCSC)NC(=O)[C@H](CCCNC(=N)N)NC(=O)[C@H](CCCCN)NC(=O)[C@H](CCC(=O)O)NC(=O)[C@H](Cc1c[nH]c2ccccc12)NC(=O)CNC(=O)[C@@H]1CCCN1C(=O)[C@@H]1CCCN1C(=O)[C@H](CC(C)C)NC(=O)[C@@H](N)CCCCN)C(C)C)C(=O)N[C@H](C(=O)N[C@@H](CC(N)=O)C(=O)N[C@@H](C)C(=O)N[C@@H](CO)C(=O)N[C@@H](CCC(N)=O)C(=O)N[C@@H](Cc1ccccc1)C(=O)N[C@@H](CCC(=O)O)C(=O)N[C@@H](CCCNC(=N)N)C(=O)N1CCC[C@H]1C(=O)N[C@@H](CO)C(=O)NCC(=O)O)[C@@H](C)O` [23N], which “Tm (melting temperature)” value ([1]; 50 μM protein) is on record?
A: The value was 27.7 ±0.3 °C.

Q: With `CC[C@H](C)[C@H](NC(=O)[C@H](CC(N)=O)NC(=O)[C@H](CC(N)=O)NC(=O)[C@H](Cc1ccccc1)NC(=O)[C@H](Cc1ccc(O)cc1)NC(=O)[C@H](Cc1ccc(O)cc1)NC(=O)[C@@H](NC(=O)[C@H](CCCNC(=N)N)NC(=O)CNC(=O)[C@H](CO)NC(=O)[C@H](CO)NC(=O)[C@H](CCCNC(=N)N)NC(=O)[C@H](CO)NC(=O)[C@H](CCSC)NC(=O)[C@H](CCCNC(=N)N)NC(=O)[C@H](CCCCN)NC(=O)[C@H](CCC(=O)O)NC(=O)[C@H](Cc1c[nH]c2ccccc12)NC(=O)CNC(=O)[C@@H]1CCCN1C(=O)[C@@H]1CCCN1C(=O)[C@H](CC(C)C)NC(=O)[C@@H](N)CCCCN)C(C)C)C(=O)N[C@H](C(=O)N[C@@H](CC(N)=O)C(=O)N[C@@H](C)C(=O)N[C@@H](CO)C(=O)N[C@@H](CCC(N)=O)C(=O)N[C@@H](Cc1ccccc1)C(=O)N[C@@H](CCC(=O)O)C(=O)N[C@@H](CCCNC(=N)N)C(=O)N1CCC[C@H]1C(=O)N[C@@H](CO)C(=O)NCC(=O)O)[C@@H](C)O` [27N] as the compound, how does the “Tm (melting temperature)” value ([1]; 50 μM protein) read?
A: Its value is 54.9 ±0.1 °C.

Q: For `CC[C@H](C)[C@H](NC(=O)[C@H](Cc1c[nH]cn1)NC(=O)[C@H](CC(N)=O)NC(=O)[C@H](Cc1ccccc1)NC(=O)[C@H](Cc1ccc(O)cc1)NC(=O)[C@H](Cc1ccc(O)cc1)NC(=O)[C@@H](NC(=O)[C@H](CCCNC(=N)N)NC(=O)CNC(=O)[C@H](CO)NC(=O)[C@H](CO)NC(=O)[C@H](CCCNC(=N)N)NC(=O)[C@H](CO)NC(=O)[C@H](CCSC)NC(=O)[C@H](CCCNC(=N)N)NC(=O)[C@H](CCCCN)NC(=O)[C@H](CCC(=O)O)NC(=O)[C@H](Cc1c[nH]c2ccccc12)NC(=O)CNC(=O)[C@@H]1CCCN1C(=O)[C@@H]1CCCN1C(=O)[C@H](CC(C)C)NC(=O)[C@@H](N)CCCCN)C(C)C)C(=O)N[C@@H](CC(N)=O)C(=O)N[C@@H](CC(N)=O)C(=O)N[C@@H](C)C(=O)N[C@@H](CO)C(=O)N[C@@H](CCC(N)=O)C(=O)N[C@@H](Cc1ccccc1)C(=O)N[C@@H](CCC(=O)O)C(=O)N[C@@H](CCCNC(=N)N)C(=O)N1CCC[C@H]1C(=O)N[C@@H](CO)C(=O)NCC(=O)O` [29N], which “Tm (melting temperature)” value ([1]; 50 μM protein) is on record?
A: The value was 50.0 ±0.1 °C.

Q: Which “Tm (melting temperature)” value ([1]; 100 μM protein) does the source give for `CC[C@H](C)[C@H](NC(=O)[C@H](Cc1c[nH]cn1)NC(=O)[C@H](CC(N)=O)NC(=O)[C@H](Cc1ccccc1)NC(=O)[C@H](Cc1ccc(O)cc1)NC(=O)[C@H](Cc1ccc(O)cc1)NC(=O)[C@@H](NC(=O)[C@H](CCCNC(=N)N)NC(=O)CNC(=O)[C@H](CO)NC(=O)[C@H](CO)NC(=O)[C@H](CCCNC(=N)N)NC(=O)[C@H](CO)NC(=O)[C@H](CCSC)NC(=O)[C@H](CCCNC(=N)N)NC(=O)[C@H](CCCCN)NC(=O)[C@H](CCC(=O)O)NC(=O)[C@H](Cc1c[nH]c2ccccc12)NC(=O)CNC(=O)[C@@H]1CCCN1C(=O)[C@@H]1CCCN1C(=O)[C@H](CC(C)C)NC(=O)[C@@H](N)CCCCN)C(C)C)C(=O)N[C@H](C(=O)N[C@@H](CC(N)=O)C(=O)N[C@@H](C)C(=O)N[C@@H](CC(N)=O)C(=O)N[C@@H](CCC(N)=O)C(=O)N[C@@H](Cc1ccccc1)C(=O)N[C@@H](CCC(=O)O)C(=O)N[C@@H](CCCNC(=N)N)C(=O)N1CCC[C@H]1C(=O)N[C@@H](CO)C(=O)NCC(=O)O)[C@@H](C)O` [32N] here?
A: The value was 45.1 ±0.2 °C.
